Where two headings read alike, the source gives them in different places. Where a SMILES comes first, the peptide text is derived from it. The star is where a group is joined. Cbz = O=C(OCc1ccccc1)*; CHN2 = [N-]=[N+]=C*; tBu = CC(C)(C)*
Key:
[1] = system: A549 cells
[2] = system: HIV/MARV pseudovirus (Marburg virus Musoke glycoprotein); assay: organism not typed; format: cell-based; details: for IC50: read-out: IC50 HIV/MARV
[3] = system: HIV/VSV pseudovirus (control); format: cell-based, vesicular stomatitis virus
[4] = system: HIV/MLAV pseudovirus (Měnglà virus glycoprotein); assay: organism not typed; format: cell-based; details: for IC50: read-out: IC50 HIV/MLAV
[5] = system: HIV/EBOV pseudovirus (Ebola virus Zaire Mayinga glycoprotein); assay: organism not typed; format: cell-based; details: for IC50: read-out: IC50 HIV/EBOV
[6] = in vitro; details: human
[7] = system: MLAV; details: cited from earlier work

SMILES | CC50 [6] [µM] | IC50 ([2]; A549, 48 h) [µM] | IC50 ([4]; A549, 48 h) [µM] | IC50 ([5]; A549, 48 h) [µM] | further results
CC(C)(C)Oc1ccc(C[C@H](NC(=O)[C@H](Cc2ccccc2)NC(=O)OCc2ccccc2)C(=O)C=[N+]=[N-])cc1 [Cathepsin L Inhibitor III] (Cbz-Phe-Tyr(tBu)-CHN2) |  |  |  |  | CC50 [1]: > 100 µM; IC50 [2]: 2.38 ± 0.4 µM; inhibition of VSV pseudovirus entry at 100 µM (in words) [3]: no inhibition; IC50 [4]: 7.14 ± 1.5 µM; IC50 [5]: 0.75 ± 0.19 µM
CC(C)[C@H](NC(=O)OCc1ccccc1)C(=O)N[C@H](C=O)Cc1ccccc1 [MDL‐28170] (Cbz-Val-Phe-aldehyde) | > 100 | 1.69 ± 0.46 | 9.46 ± 1.69 | 1.44 ± 0.2 | inhibition of MARV pseudovirus entry (in words) [2]: can block; inhibition of MLAV pseudovirus entry (in words) [4]: can block; inhibition of EBOV pseudovirus entry (in words) [5]: can block
CCCCOc1cc(C(=O)NCCN(CC)CC)c2ccccc2n1 [Dibucaine] | 51.3 ± 1.2 | 5.82 ± 0.37 | 10.8 ± 1.68 | 2.93 ± 1.04 | 
CN[C@H]1CC[C@@H](c2ccc(Cl)c(Cl)c2)c2ccccc21 [Sertraline] | 15 ± 0.9 |  |  |  | 
CC(C)COCC(CN(Cc1ccccc1)c1ccccc1)N1CCCC1 (centres unmarked) [Bepridil] | 34.7 ± 4.6 | 7.37 ± 0.9 | 9.74 ± 0.94 | 3.27 ± 0.4 | 
CCCNC(=O)[C@H]1O[C@@H]1C(=O)N[C@H](C(=O)N1CCC[C@H]1C(=O)O)[C@@H](C)CC [CA‐074] |  |  |  |  | CC50 [1]: > 100 µM; inhibition of MARV pseudovirus entry at 100 µM (in words) ([2]; at 100 µM): resistant; IC50 [2]: > 100 µM; inhibition of VSV pseudovirus entry at 100 µM (in words) [3]: resistant; inhibition of MLAV pseudovirus entry at 100 µM (in words) ([4]; at 100 µM): resistant; IC50 [4]: > 100 µM; IC50 [5]: 28.4 ± 6.56 µM
CC(=O)N[C@@H](CC(C)C)C(=O)N[C@@H](CC(C)C)C(=O)N[C@H](C=O)CCCNC(=N)N [Leupeptin] | > 100 | 0.92 ± 0.27 | 1.24 ± 0.29 | 0.41 ± 0.04 | inhibition of VSV pseudovirus entry (in words) [3]: ineffective
CNCCC(Oc1ccc(C(F)(F)F)cc1)c1ccccc1 (centres unmarked) [Fluoxetine] | 28.7 ± 0.1 |  |  |  | 
CN1[C@@H]2CC[C@H]1C[C@@H](OC(c1ccccc1)c1ccccc1)C2 [Benztropine] | 54.5 ± 2 |  |  |  | 
Fc1ccc([C@@H]2CCNC[C@H]2COc2ccc3c(c2)OCO3)cc1 [Paroxetine] | 23.6 ± 2.5 | 1.83 ± 0.66 | 4.88 ± 1.7 | 0.36 ± 0.4 | selectivity index (SI) with MLAV [4]: 5
NCCc1ccc(S(=O)(=O)F)cc1 [AEBSF] |  |  |  |  | CC50 [1]: ~100 µM; inhibition of MARV pseudovirus entry (in words) [2]: limited inhibition; IC50 [2]: 29 ± 1.7 µM; inhibition of MLAV pseudovirus entry (in words) [4]: unable to effectively inhibit; IC50 [4]: 36.7 ± 10.4 µM; inhibition of EBOV pseudovirus entry (in words) [5]: limited inhibition; IC50 [5]: 19.1 ± 0.58 µM
CN(C)CCCN1c2ccccc2CCc2ccccc21 [Imipramine] | 76.3 ± 7.4 | 5.55 ± 1.12 | 7.91 ± 0.81 | 2 ± 0.65 | 
CN(C)CCOc1ccc(/C(=C(/CCCl)c2ccccc2)c2ccccc2)cc1 [Toremifene] | 25.3 ± 1.6 | 1.75 ± 0.86 | 3.63 ± 0.72 | 0.06 ± 0.05 | inhibition of MLAV (in words) [7]: inhibited MLAV

From paper PMC9161972 (Journal of Medical Virology, 2022)
